According to patent publication US10246456B2, “IRAK4 inhibiting agents” (BIOGEN MA INC., priority 2014, dated 2019):
pEC50, pIC50: −log10 of the molar value.

How the values were obtained:
IL-6 in A549 cells = assay: Cell-based IL-6 ELISA assay in IL-1beta stimulated A549 cells; settings: 2 ng/ml human IL-1beta overnight
Protocol: The cell-based assays is based on IL-6 ELISA quantification. Briefly, A549 cells are cultured in DMEM with 10% FBS medium. When cells reach 80% confluence they are trypsin treated and seeded 180 ul/well in 96-well plate at 2.5×10^4 cells/well. Then, 20 ul of compound serial dilutions (starting at 10 uM, 10 points) are added to the cell plate; incubate for 30 min at 37 C and stimulated with 2 ng/ml human IL-1beta 37 C, 5% CO2 overnight. The next day 100 ul of cell supernatant per well are analyzed on a Human IL-6 Quantikine ELISA kit from R&D Systems.

IRAK4 = IRAK4 (Homo sapiens (Human), UniProt Q9NWZ3); assay: IRAK-4 AlphaScreen biochemical kinase assay; settings: 1 nM IRAK4, 1 mM ATP, 3.5 h at RT
In short: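 AlphaScreen read-out: streptavidin beads bind the biotinylated peptide and protein A beads bind the anti-phosphothreonine antibody, so energy transfer reports phosphorylation of the peptide. The kinase is human IRAK-4.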

Sequence of IRAK4 (Q9NWZ3 whole entry, species assumed): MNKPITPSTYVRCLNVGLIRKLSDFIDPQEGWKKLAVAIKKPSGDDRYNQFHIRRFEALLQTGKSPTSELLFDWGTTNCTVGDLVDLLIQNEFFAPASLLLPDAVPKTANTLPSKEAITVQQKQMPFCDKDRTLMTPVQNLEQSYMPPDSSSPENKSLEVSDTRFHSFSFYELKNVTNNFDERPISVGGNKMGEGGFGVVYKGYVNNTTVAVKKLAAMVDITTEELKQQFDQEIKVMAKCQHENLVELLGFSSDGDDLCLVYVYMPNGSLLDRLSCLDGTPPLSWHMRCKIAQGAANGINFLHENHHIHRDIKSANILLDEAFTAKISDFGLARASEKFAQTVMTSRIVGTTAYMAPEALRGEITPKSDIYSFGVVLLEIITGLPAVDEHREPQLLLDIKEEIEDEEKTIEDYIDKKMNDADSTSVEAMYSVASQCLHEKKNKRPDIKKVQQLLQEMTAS

SMILES | pEC50 (IL-6 in A549 cells) | pIC50 (IRAK4)
CC[C@H](N)c1cccc(-c2cc(NC)c3cnn(-c4cccc(CO)n4)c3c2)n1 [Example 485, (S)-(6-(6-(6-(1-aminopropyl)pyridin-2-yl)-4-(methylamino)-1H-indazol-1-yl)pyridin-2-yl)methanol] | ≥ 6.00 | > 7.00
CCC[C@H](N)c1cccc(-c2ccc3cnn(-c4nccc(C(F)F)n4)c3c2)n1 [Example 486, (S)-1-(6-(1-(4-(difluoromethyl)pyrimidin-2-yl)-1H-indazol-6-yl)pyridin-2-yl)butan-1-amine] | ≥ 6.00 | > 7.00
Cc1cc(-c2cc(-c3cccc([C@H](C)N)n3)cc3c2cnn3-c2cccc(CO)n2)nn1C [Example 365, (S)-(6-(6-(6-(1-aminoethyl)pyridin-2-yl)-4-(1,5-dimethyl-1H-pyrazol-3-yl)-1H-indazol-1-yl)pyridin-2-yl)methanol] | ≥ 6.00 | > 7.00
COc1cc(-c2cccc([C@@H](N)CCC(F)(F)F)n2)cc2c1cnn2-c1cccc(CO)n1 [Example 502, (S)-(6-(6-(6-(1-amino-4,4,4-trifluorobutyl)pyridin-2-yl)-4-methoxy-1H-indazol-1-yl)pyridin-2-yl)methanol] | ≥ 6.00 | > 7.00
CCC[C@H](N)c1cccc(-c2cc(N3CCCC3CO)c3cnn(-c4cccc(CO)n4)c3c2)n1 (stereo partly drawn) [Example 326, (1-(6-(6-((S)-1-aminobutyl)pyridin-2-yl)-1-(6-(hydroxymethyl)pyridin-2-yl)-1H-indazol-4-yl)pyrrolidin-2-yl)methanol] | ≥ 6.00 | > 7.00
CC(F)(F)C[C@H](N)c1cccc(-c2ccc3cnn(-c4cccc(CO)n4)c3c2)n1 [Example 437, (S)-(6-(6-(6-(1-amino-3,3-difluorobutyl)pyridin-2-yl)-1H-indazol-1-yl)pyridin-2-yl)methanol] | ≥ 6.00 | > 7.00
Cc1nnc(-c2cc(-c3cccc([C@H](C)N)n3)cc3c2cnn3-c2cccc(CO)n2)s1 [Example 362, (S)-(6-(6-(6-(1-aminoethyl)pyridin-2-yl)-4-(5-methyl-1,3,4-thiadiazol-2-yl)-1H-indazol-1-yl)pyridin-2-yl)methanol] | ≥ 6.00 | > 7.00
CCOc1cc(-c2cccc([C@@H](N)[C@@H](F)CC)n2)cc2c1cnn2-c1cccc(CO)n1 [Example 442, (6-(6-(6-((1R,2S)-1-amino-2-fluorobutyl)pyridin-2-yl)-4-ethoxy-1H-indazol-1-yl)pyridin-2-yl)methanol] | ≥ 6.00 | > 7.00
C[C@H](N)c1cccc(-c2cc(-c3ncco3)c3cnn(-c4cccc(CO)n4)c3c2)n1 [Example 359, (S)-(6-(6-(6-(1-aminoethyl)pyridin-2-yl)-4-(oxazol-2-yl)-1H-indazol-1-yl)pyridin-2-yl)methanol] | ≥ 6.00 | > 7.00
C[C@H](N)c1cccc(-c2cc(-n3ccnc3)c3cnn(-c4cccc(CO)n4)c3c2)n1 [Example 354, (S)-(6-(6-(6-(1-aminoethyl)pyridin-2-yl)-4-(1H-imidazol-1-yl)-1H-indazol-1-yl)pyridin-2-yl)methanol] | ≥ 6.00 | > 7.00
CC(N)c1cccc(-c2ccc3cnn(-c4cccc(C(F)F)n4)c3c2)n1 (stereo in doubt) [Example 529, (S)-1-(6-(1-(6-(difluoromethyl)pyridin-2-yl)-1H-indazol-6-yl)pyridin-2-yl)ethanamine] | ≥ 6.00 | > 7.00
CC[C@H](N)c1cccc(-c2cc(C#N)c3cnn(-c4cccc(CO)n4)c3c2)n1 [Example 533, (S)-6-(6-(1-aminopropyl)pyridin-2-yl)-1-(6-(hydroxymethyl)pyridin-2-yl)-1H-indazole-4-carbonitrile] | ≥ 6.00 | > 7.00
CC[C@H](N)c1cccc(-c2ccc3cnn(-c4nccc(C(F)F)n4)c3c2)n1 [Example 512, (S)-1-(6-(1-(4-(difluoromethyl)pyrimidin-2-yl)-1H-indazol-6-yl)pyridin-2-yl)propan-1-amine] | ≥ 6.00 | > 7.00
CCC[C@H](N)c1cccc(-c2cc(F)c3cnn(-c4cccc(CO)n4)c3c2)n1 [Example 474, (6-{6-[6-((S)-1-Amino-butyl)-pyridin-2-yl]-4-fluoro-indazol-1-yl}-pyridin-2-yl)-methanol] | ≥ 6.00 | > 7.00
C=C(C)C[C@H](N)c1cccc(-c2ccc3cnn(-c4cccc(CO)n4)c3c2)n1 [Example 436, (S)-(6-(6-(6-(1-amino-3-methylbut-3-en-1-yl)pyridin-2-yl)-1H-indazol-1-yl)pyridin-2-yl)methanol] | ≥ 6.00 | > 7.00
CCC[C@H](N)c1cccc(-c2cc(OCC)c3cnn(-c4cncc(CO)n4)c3c2)n1 [Example 499, (S)-(6-(6-(6-(1-aminobutyl)pyridin-2-yl)-4-ethoxy-1H-indazol-1-yl)pyrazin-2-yl)methanol] | ≥ 6.00 | > 7.00

SMILES | pEC50 (IL-6 in A549 cells) | pIC50 (IRAK4)
CCC[C@H](N)c1cccc(-c2ccc3cnn(-c4cccc(C(C)O)n4)c3c2)n1 (single isomer, unassigned) [Example 418] | ≥ 6.00 | > 7.00
C[C@H](N)c1cccc(-c2cc(C#N)c3cnn(-c4cccc(CO)n4)c3c2)n1 [Example 537, (S)-6-(6-(1-aminoethyl)pyridin-2-yl)-1-(6-(hydroxymethyl)pyridin-2-yl)-1H-indazole-4-carbonitrile] | ≥ 6.00 | > 7.00
CCC[C@H](N)c1cccc(-c2cc(OCC)c3cnn(-c4cccc(CO)n4)c3c2)n1 [Example 464, (S)-(6-(6-(6-(1-aminobutyl)pyridin-2-yl)-4-ethoxy-1H-indazol-1-yl)pyridin-2-yl)methanol] | ≥ 6.00 | > 7.00
CC[C@H](F)[C@H](N)c1cccc(-c2cc(OCCOC)c3cnn(-c4cccc(CO)n4)c3c2)n1 [Example 454, (6-(6-(6-((1R,2S)-1-amino-2-fluorobutyl)pyridin-2-yl)-4-(2-methoxyethoxy)-1H-indazol-1-yl)pyridin-2-yl)methanol] | ≥ 6.00 | > 7.00
CC[C@H](N)c1cccc(-c2cc(-c3ccn(C)n3)c3cnn(-c4cccc(CO)n4)c3c2)n1 [Example 360, (S)-(6-(6-(6-(1-aminopropyl)pyridin-2-yl)-4-(1-methyl-1H-pyrazol-3-yl)-1H-indazol-1-yl)pyridin-2-yl)methanol] | ≥ 6.00 | > 7.00
C[C@H](N)c1cccc(-c2cc(-c3ccsn3)c3cnn(-c4cccc(CO)n4)c3c2)n1 [Example 370, (S)-(6-(6-(6-(1-aminoethyl)pyridi9n-2-yl)-4-(isothiazol-3-yl)-1H-indazol-1-yl)pyridin-2-yl)methanol] | ≥ 6.00 | > 7.00
Cc1cnc(-c2cc(-c3cccc([C@H](C)N)n3)cc3c2cnn3-c2cccc(CO)n2)s1 [Example 372, (S)-(6-(6-(6-(1-aminoethyl)pyridin-2-yl)-4-(5-methylthiazol-2-yl)-1H-indazol-1-yl)pyridin-2-yl)methanol] | ≥ 6.00 | > 7.00
C[C@H](N)c1cccc(-c2cc(-c3nc(C(F)(F)F)cs3)c3cnn(-c4cccc(CO)n4)c3c2)n1 [Example 378, (S)-(6-(6-(6-(1-aminoethyl)pyridin-2-yl)-4-(4-(trifluoromethyl)thiazol-2-yl)-1H-indazol-1-yl)pyridin-2-yl)methanol] | 5.00 to 6.00 | > 7.00
CCCC(N)c1cccc(-c2ccc3cnn(-c4cccc(C(F)F)n4)c3c2)n1 (stereo in doubt) [Example 519, (S)-1-(6-(1-(6-(difluoromethyl)pyridin-2-yl)-1H-indazol-6-yl)pyridin-2-yl)butan-1-amine] | ≥ 6.00 | > 7.00
C[C@H](N)c1cccc(-c2cc(C(=O)NC(C)(C)CO)c3cnn(-c4cccc(CO)n4)c3c2)n1 [Example 540, (S)-6-(6-(1-aminoethyl)pyridin-2-yl)-N-(1-hydroxy-2-methylpropan-2-yl)-1-(6-(hydroxymethyl)pyridin-2-yl)-1H-indazole-4-carboxamide] | 5.00 to 6.00 | 6.00 to 7.00
C[C@H](N)c1cccc(-c2cc(-c3nc(C(F)(F)F)co3)c3cnn(-c4cccc(CO)n4)c3c2)n1 [Example 374, (S)-(6-(6-(6-(1-aminoethyl)pyridin-2-yl)-4-(4-(trifluoromethyl)oxazol-2-yl)-1H-indazol-1-yl)pyridin-2-yl)methanol] | ≥ 6.00 | > 7.00
CCC[C@H](N)c1cccc(-c2cc(CN(C)C)c3cnn(-c4cccc(CO)n4)c3c2)n1 [Example 517, (S)-(6-(6-(6-(1-aminobutyl)pyridin-2-yl)-4-((dimethylamino)methyl)-1H-indazol-1-yl)pyridin-2-yl)methanol] | ≥ 6.00 | > 7.00
CCC[C@H](N)c1cccc(-c2cc(N3CCC(O)CC3)c3cnn(-c4cccc(CO)n4)c3c2)n1 [Example 329, (S)-1-(6-(6-(1-aminobutyl)pyridin-2-yl)-1-(6-(hydroxymethyl)pyridin-2-yl)-1H-indazol-4-yl)piperidin-4-ol] | ≥ 6.00 | > 7.00
CCC[C@H](N)c1cccc(-c2ccc3cnn(-c4cccc([C@H](O)C(F)(F)F)n4)c3c2)n1 [Example 452, (S)-1-(6-(6-(6-((S)-1-aminobutyl)pyridin-2-yl)-1H-indazol-1-yl)pyridin-2-yl)-2,2,2-trifluoroethanol] | 5.00 to 6.00 | > 7.00
CCOc1cc(-c2cccc([C@@H](N)[C@H](CC)OC)n2)cc2c1cnn2-c1cccc(CO)n1 [Example 444, (6-(6-(6-((1R,2S)-1-amino-2-methoxybutyl)pyridin-2-yl)-4-ethoxy-1H-indazol-1-yl)pyridin-2-yl)methanol] | 5.00 to 6.00 | > 7.00
